In patent publication US20180099950A1, “APOPTOSIS SIGNAL-REGULATING KINASE INHIBITOR” (Gilead Sciences, Inc., priority 2012, published 2018):
pIC50: −log10 of the molar value. Read-outs that look alike come from different tables or passages of the source.

Key:
[1] = Determination of percent of compound bound to plasma (equilibrium dialysis); type: in vitro ADME; conditions: human
Text: Sample vials were weighed and recorded.

[2] = Rat pharmacokinetics, 1 mg/kg IV infusion and 5.0 mg/kg PO; type: in vivo
Description: Pharmacokinetics of Test Compounds following a 1 mg/kg IV infusion and 5.0 mg/kg PO dose in rats
For IV administration the test compound was formulated in 60:40 PEG 400:water with 1 equivalent HCl at 0.5 mg/mL. […] For PO (oral) administration, the test compound was formulated in 5/75/10/10 ethanol/PG/solutol/water at 2.5 mg/mL.
IV and PO dosing groups each consisted of 3 male SD rats. […] The animals were fasted overnight prior to dose administration and up to 4 hr after dosing.
For the IV infusion group, the test compound was administered by intravenous infusion over 30 minutes. The rate of infusion was adjusted according to the body weight of each animal to deliver a dose of 1 mg/kg at 2 mL/kg. For the oral dosing group, the test article was administered by oral gavage at 2 mL/kg for a dose of 5.0 mg/kg.
Serial venous blood samples (approximately 0.4 mL each) were taken at specified time points after dosing from each animal. The blood samples were collected into Vacutainer™ tubes (Becton-Disckinson Corp, N.J., USA) containing EDTA as the anti-coagulant and were immediately placed on wet ice pending centrifugation for plasma.
An LC/MS/MS method was used to measure the concentration of test compound in plasma.
Non-compartmental pharmacokinetic analysis was performed on the plasma concentration-time data.

CYP3A4 = molecular target: T1, CYP3A4 (Homo sapiens, UniProt P08684); assay: Cytochrome P450 inhibition, CYP3A4 (midazolam and testosterone); type: in vitro ADME
T1 construct: from tissue; host or cells: human liver microsomes
T1 sequence (P08684 whole entry): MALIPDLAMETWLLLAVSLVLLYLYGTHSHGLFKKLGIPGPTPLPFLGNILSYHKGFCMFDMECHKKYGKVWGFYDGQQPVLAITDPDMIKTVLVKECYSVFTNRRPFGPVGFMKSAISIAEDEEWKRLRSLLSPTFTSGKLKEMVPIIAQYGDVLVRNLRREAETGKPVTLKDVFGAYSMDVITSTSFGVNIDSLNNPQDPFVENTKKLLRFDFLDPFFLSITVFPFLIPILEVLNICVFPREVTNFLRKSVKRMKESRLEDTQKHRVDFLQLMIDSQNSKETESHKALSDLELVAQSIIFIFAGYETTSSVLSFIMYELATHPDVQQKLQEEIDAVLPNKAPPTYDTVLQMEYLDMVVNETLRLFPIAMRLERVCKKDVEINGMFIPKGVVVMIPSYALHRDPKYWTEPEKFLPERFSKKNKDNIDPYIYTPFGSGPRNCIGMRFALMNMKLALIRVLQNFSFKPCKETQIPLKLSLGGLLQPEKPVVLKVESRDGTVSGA

[3] = pH 7.4, fraction unbound, comparative table, read-out: fu

| fraction unbound at 3 h, 2 μM [1, 3] | clearance ([2]; male, SD, rat, plasma, intravenous, 1 mg/kg, rats) [mL/min/kg] | Vd ([2]; male, SD, rat, plasma, intravenous, 1 mg/kg, rats, read-out: Vss) [L/kg] | bioavailability ([2]; male, SD, rat, plasma, rats, 5.0 mg/kg PO, read-out: oral bioavailability (% F)) [%] | half-life ([2]; male, SD, rat, plasma, rats, read-out: t½ (converted)) [h] | number of times the compound of formula (I) shows an improvement over the indicated compound: % F in rats ([2]; rat, in vivo) | number of times the compound of formula (I) shows an improvement over the indicated compound: CL in rats ([2]; rat, in vivo) | number of times the compound of formula (I) shows an improvement over the indicated compound: t½ in rats ([2]; rat, in vivo) | CYP3A4 IC50/PBAdj.EC50 value of compound of formula (I) higher than that of the named compound (CYP3A4) [times] | number of times the compound of formula (I) shows an improvement over the indicated compound: Cyp3A4 IC50 (TST) (CYP3A4) | pIC50 (CYP3A4; testosterone substrate, comparative table, read-out: Cyp3A4 IC50 Testesterone (TST))) | fraction unbound at 3 h, 2 μM ([1]; pH 7.4, human plasma, 2 uM, 3 hours at 37 C, read-out: percent unbound) | number of times the compound of formula (I) shows an improvement over the indicated compound: Vss in rats ([2]; rat, in vivo) | t½ ([2]; rats) [h] | Compound |
| --- | --- | --- | --- | --- | --- | --- | --- | --- | --- | --- | --- | --- | --- | --- |
| 0.032 | 6.5 | 0.54 | 50 | 1.3 | (1.5X) | (3.6X) | (3.9X) | 92 | (2.8X) | 5.40 |  |  |  | Cc1ccc(C(=O)Nc2cccc(-c3nncn3C(C)C)n2)cc1-n1cnc(C2CC2)c1 [Compound B] |
| 0.12 |  |  |  |  |  |  |  |  |  |  | 0.119 |  |  | Cc1cc(F)c(C(=O)Nc2cccc(-c3nncn3C(C)C)n2)cc1-n1cnc(C2CC2)c1 [compound of formula (I), 5-(4-cyclopropyl-1H-imidazol-1-yl)—N-(6-(4-isopropyl-4H-1,2,4-triazol-3-yl)pyridin-2-yl)-2-fluoro-4-methylbenzamide] |
| 0.048 |  |  |  |  | (6.8X) | (2.7X) | (8.6X) | 43 | (10X) |  |  | (3.2X) | 0.59 | CC(C)n1cnnc1-c1cccc(NC(=O)c2cccc(-n3cnc(C4CC4)c3)c2)n1 [Compound A] |
